The source of these data is patent US20250188043A1 (ReproNovo SA, priority 2023, published 2025).

Data set [1] can be described thus: Thermodynamic solubility. The class given is physicochemical. The note with it: thermodynamic from solid.
Data set [2] in a line: Cellular transport by Caco-2 assay. The class given is in vitro ADME, humans. The note with it: human. The source says:
(§1) The ratio of B-A/A-B is 0.43.

Data set [3] has as its system Caco-2 cell model. The experiment in a line: Cellular transport by Caco-2 assay. The class given is in vitro ADME, humans.
From the text: as §1
In general terms: Caco-2 cells form a polarised layer with tight junctions and transporters.

Data set [4] concerns CYP3A4/5. Nature of the data set: CYP inhibition, pooled human liver microsomes, probe substrates. It is filed as in vitro ADME. The note with it: up to 100 μM. Background: Microsomes from liver hold many membrane-bound enzymes, among them those of drug oxidation.
The test system of data set [5] is obese and overweight men with hypogonadism and low total motile sperm count. Nature of the data set: Extension of treatment to 48 total weeks. The class given is in vivo, human. The note with it: for serum testosterone change from baseline / serum testosterone level: 48-week period.
Data set [6] has as its target T1, CYP2A6 (Homo sapiens, UniProt P11509).
T1 construct: assessed by pooled human liver microsomes using enzyme selective probe substrates; from tissue; host or cells: pooled human liver microsomes
T1 sequence (P11509 1-494): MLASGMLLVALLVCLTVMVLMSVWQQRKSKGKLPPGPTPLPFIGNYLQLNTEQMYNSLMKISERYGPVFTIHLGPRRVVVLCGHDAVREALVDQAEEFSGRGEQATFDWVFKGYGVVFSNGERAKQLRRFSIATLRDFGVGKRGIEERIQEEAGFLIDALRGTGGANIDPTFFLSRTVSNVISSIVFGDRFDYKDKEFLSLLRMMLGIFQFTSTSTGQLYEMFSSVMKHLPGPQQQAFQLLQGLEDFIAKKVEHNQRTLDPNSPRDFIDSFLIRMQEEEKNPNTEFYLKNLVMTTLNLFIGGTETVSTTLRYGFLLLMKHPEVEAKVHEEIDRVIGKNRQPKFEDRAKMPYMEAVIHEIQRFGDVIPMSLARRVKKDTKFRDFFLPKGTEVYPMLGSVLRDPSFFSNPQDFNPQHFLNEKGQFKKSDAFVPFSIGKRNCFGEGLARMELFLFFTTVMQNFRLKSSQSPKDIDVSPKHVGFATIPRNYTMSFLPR
Nature of the data set: CYP inhibition, pooled human liver microsomes, probe substrates. The class given is in vitro ADME.

Data set [7] addresses T2, CYP1A2 (Homo sapiens, UniProt P05177).
T2 construct: assessed by pooled human liver microsomes using enzyme selective probe substrates; from tissue; host or cells: pooled human liver microsomes
T2 sequence (P05177 1-516): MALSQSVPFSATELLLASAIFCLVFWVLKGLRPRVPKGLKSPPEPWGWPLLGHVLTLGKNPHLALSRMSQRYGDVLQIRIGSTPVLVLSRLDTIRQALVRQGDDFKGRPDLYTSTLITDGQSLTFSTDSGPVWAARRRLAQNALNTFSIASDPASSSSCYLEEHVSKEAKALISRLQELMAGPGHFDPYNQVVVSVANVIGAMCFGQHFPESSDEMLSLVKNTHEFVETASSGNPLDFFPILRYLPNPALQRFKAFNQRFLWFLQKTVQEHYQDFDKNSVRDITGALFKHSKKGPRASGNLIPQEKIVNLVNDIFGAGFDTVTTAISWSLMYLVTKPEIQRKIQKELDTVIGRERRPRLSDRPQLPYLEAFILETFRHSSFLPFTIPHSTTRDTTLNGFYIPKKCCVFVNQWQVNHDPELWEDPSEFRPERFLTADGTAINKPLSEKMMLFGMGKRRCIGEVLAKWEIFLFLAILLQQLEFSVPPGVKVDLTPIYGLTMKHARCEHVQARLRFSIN
The description is as above. To be noted: up to 100 μM. It is filed as in vitro ADME.

SMILES strings stand for the structures. ≈ marks a conversion by molar mass, not a printed value.

With `N#Cc1ccc(C(F)(c2ccc(C#N)cc2)n2cncn2)cc1` [Form A leflutrozole, 4-[(4-cyanophenyl)-fluoro-(1,2,4-triazol-1-yl)methyl]benzonitrile], the solubility (thermodynamic) in data set [1] (0.05 M potassium biphthalate buffer, aqueous buffer, 0.05M buffer pH 3 - Potassium Biphthalate) is < 30 µg/mL; in data set [1] (0.05 M potassium chloride buffer, aqueous buffer, 0.05M buffer pH 1 - Potassium Chloride) it was < 30 µg/mL; in data set [1] (0.05 M potassium phosphate buffer, aqueous buffer, 0.05M buffer pH 6.86 - Potassium Phosphate) it was < 30 µg/mL; in data set [1] (0.05 M sodium acetate buffer, aqueous buffer, 0.05M buffer pH 4.63 - Sodium Acetate) it was < 30 µg/mL; in data set [1] (1% Cremophor EL in water, aqueous with cosolvent or surfactant or cyclodextrin) it was < 30 µg/mL; in data set [1] (1% Tween 80 in water, aqueous with cosolvent or surfactant or cyclodextrin), < 30 µg/mL. Also, the thermodynamic solubility in data set [1] (1% sodium dioctyl sulfosuccinate in water, aqueous with cosolvent or surfactant or cyclodextrin) is 170 µg/mL (≈ 561 µM); in data set [1] (1% sodium lauryl sulfate in water, aqueous with cosolvent or surfactant or cyclodextrin), 470 µg/mL (≈ 1550 µM); in data set [1] (10% Cremophor EL in water, aqueous with cosolvent or surfactant or cyclodextrin), 190 µg/mL (≈ 626 µM); in data set [1] (10% PEG400 in water, aqueous with cosolvent or surfactant or cyclodextrin), < 30 µg/mL; in data set [1] (10% PG in water, aqueous with cosolvent or surfactant or cyclodextrin) it was < 30 µg/mL; in data set [1] (10% ethanol in water, aqueous with cosolvent or surfactant or cyclodextrin), < 30 µg/mL. The thermodynamic solubility in data set [1] (20% hydroxypropyl β-cyclodextrin in water, aqueous with cosolvent or surfactant or cyclodextrin) is 870 µg/mL (≈ 2870 µM); in data set [1] (20% sulfobutyl ether β-cyclodextrin (Captisol) in water, aqueous with cosolvent or surfactant or cyclodextrin), 1050 µg/mL (≈ 3460 µM); in data set [1] (Cremophor EL, organic solvent or mixture), 280 µg/mL (≈ 923 µM); in data set [1] (FaSSIF), < 30 µg/mL; in data set [1] (FeSSIF), < 30 µg/mL; in data set [1] (Miglyol, oil or lipid), 720 µg/mL (≈ 2370 µM). Also, the thermodynamic solubility is < 30 µg/mL in data set [1] (SGF, simulated gastric fluid); < 30 µg/mL in data set [1] (aqueous buffer, 0.05M buffer pH 7.4 - Potassium Phosphate); < 30 µg/mL in data set [1] (aqueous buffer, 0.05M buffer pH 9 - Boric Acid); < 30 µg/mL in data set [1] (aqueous buffer, pH 12 - 0.1N Sodium Hydroxide); 3840 µg/mL (≈ 12700 µM) in data set [1] (ethanol, organic solvent or mixture); 6230 µg/mL (≈ 20500 µM) in data set [1] (polyethylene glycol 400, organic solvent or mixture). Besides, the thermodynamic solubility is 2270 µg/mL (≈ 7480 µM) in data set [1] (propylene glycol, organic solvent or mixture) and < 30 µg/mL in data set [1] (water).
For the molecule `N#Cc1ccc(C(F)(c2ccc(C#N)cc2)n2cncn2)cc1` [leflutrozole, 4-[(4-cyanophenyl)-fluoro-(1,2,4-triazol-1-yl)methyl]benzonitrile], the Papp A→B in data set [2] (read-out: apparent permeability, apical to basolateral) was 54.5 ×10⁻⁶ cm/s. Also, the Papp B→A in data set [2] (read-out: apparent permeability, basolateral to apical) turned out to be 23.2 ×10⁻⁶ cm/s. Further, in data set [3], the “apparent permeability (in words)” value is listed as “very high apparent permeability”. In addition, the “contribution of efflux transporters such as P-glycoprotein” value in data set [3] is recorded as “no detectable contribution of efflux transporters”. The IC50 in data set [4] and in data set [7] was > 50 µM in each case. Further, in data set [5] (0.1 mg treatment arm only), the “bone specific alkaline phosphatase” value was “significant increase”. In addition, the “serum testosterone change from baseline” value was determined as 243.0 ng/dL in data set [5] (0.1 mg), 290.6 ng/dL in data set [5] (0.3 mg) and 376.2 ng/dL in data set [5] (1.0 mg). The serum testosterone level in data set [5] (0.1 mg) came to 494.9 ng/dL; in data set [5] (0.3 mg), 549.7 ng/dL; in data set [5] (1.0 mg), 595.1 ng/dL. Also, the “bone turnover markers (type I collagen C-telopeptides, procollagen-1 N-terminal propeptide, osteocalcin)” value in data set [5] (by week 48) is listed as “increases in all leflutrozole treatment groups”. The “change in BMD for the hip or femoral neck” value in data set [5] (week 48) is “no significant change”. Further, the “clinical meaning of reductions in BMD of the lumbar spine” value in data set [5] (week 48) was “did not indicate clinically meaningful osteopenia or osteoporosis”. Further, the “percentage decrease of lumbar BMD (DEXA)” value in data set [5] (week 48, any treatment group) is listed as ≥ −3%. Affinity in data set [6] was put at a Ki of 2.56 µM.

What is called thermodynamic solubility is solubility found after equilibrating the solid with the medium. In general, IC50 refers to the concentration at which inhibition is half-maximal. A higher IC50 goes with a need for much substance. In general, Ki refers to the equilibrium dissociation constant of an inhibitor or competing ligand from its target. A higher Ki goes with a looser hold on the target.
